Residues, ends and D or L forms follow the SMILES beside them. *: point of attachment. Cbz = O=C(OCc1ccccc1)*; OtBu = CC(C)(C)O*; βAla = NCCC(=O)O
Row | Structure (SMILES) | melting point [°C]
1 | CC1(C)OC(=C(C#N)C#N)C(C#N)=C1/C=C/c1ccc(N)cc1 | 360
2 | COc1ccc(S(=O)(=O)Nc2ccccc2OC)cc1 | 85.5 to 87
3 | Cc1c(CON2C(=O)c3ccccc3C2=O)ncn1C(c1ccccc1)(c1ccccc1)c1ccccc1 | 220 to 223
4 | CC(=O)N1N=C(c2ccc([N+](=O)[O-])cc2)c2cc3c(cc2C=C1C)OCO3 | 205 to 207
5 | O=C(Nc1ccccc1)NC1CCN(Cc2ccccc2)CC1 | 161 to 162
6 | CC1NC(C#N)=C(C#N)NC1=O (stereo not drawn) | 243 to 245
7 | NC(=O)c1ncn2c1[C@@H]1CCN1C(=O)c1c(Br)cccc1-2 | 314 to 317
8 | CS(=O)(=O)OCc1cc(OCc2ccccc2)cc(OCc2ccccc2)c1 | 85 to 86
9 | COc1cc2c(cc1OC)C1CCC(O)CC1N=C2c1ccc(OCC2CC2)c(OCC2CC2)c1 (stereo not drawn) | 172 to 174
10 | O=S(=O)(c1ccccc1)c1ncc(F)cn1 | 105
11 | C=CCNc1nc(NC(=O)N2CCCC2)c2scc(C)c2n1 | 98 to 101
12 | Cc1cc(NC(=O)C(=O)N(C)C)cc(C)c1S(=O)(=O)C[N+](=O)[O-] | 171 to 172
13 | O=C(CCl)NCC(CNC(=O)CCl)OC1CCCCO1 (stereo not drawn) | 100
14 | CCCN(CCC)C1Cn2cnc3cccc(c32)C1C (stereo not drawn) | 78 to 84
15 | Cc1ccccc1-c1cc(N2CCN(C(=O)CO)CC2)ncc1C(=O)N(C)Cc1cc(C(F)(F)F)cc(C(F)(F)F)c1 | 91 to 93
16 | CS(=O)(=O)OCCOCCOC(=O)Cc1ccccc1Nc1c(Cl)cccc1Cl | 87
17 | CC(OS(C)(=O)=O)c1ccc([N+](=O)[O-])cc1 (stereo not drawn) | 70
18 | CS(=O)(=O)Cc1ccc(C(=O)c2ccc(Cl)cc2)cc1 | 164 to 166
19 | C[C@H](NC(=O)OC(C)(C)C)C(=O)N[C@H](CCC(=O)O)C(N)=O | 98
20 | COc1ccc2c(c1)c(Cc1cc(=O)n(-c3cccc(Cl)c3)[nH]1)c(C)n2C(=O)c1ccc(Cl)cc1 | 148 to 150

Row | Structure (SMILES) | melting point [°C]
21 | O=C(O)c1ccc(O)c(C(=O)C=Cc2ccc(OCc3ccc4ccccc4n3)cc2)c1 | 258 to 260
22 | COc1ccc(N(C(C)C)S(=O)(=O)c2ccc(C)cc2)c([N+](=O)[O-])c1 | 148 to 150
23 | CC(C)c1cc(Cl)cc(C(C)C)c1NC(=O)NS(=O)(=O)c1cc(C2(C)OCCO2)ccc1F | 168 to 170
24 | O=C1NCN(c2ccc(F)cc2)C12CCN(C1CCC(c3ccc(F)cc3)(c3ccc(F)cc3)CC1)CC2 | 237 to 240
25 | CC(=O)OCC1OC(n2cc(C=O)c3c(F)cccc32)C(OC(C)=O)C(OC(C)=O)C1OC(C)=O (stereo not drawn) | 190 to 192
26 | COC(=O)c1cc(C(=O)c2ncc3ccc(NC(=O)OC(C)(C)C)cn23)ccc1[N+](=O)[O-] | 182
27 | CC(=O)OC1CSC(Oc2cccnc2-c2cccs2)C(OC(C)=O)C1OC(C)=O (stereo not drawn) | 166
28 | Nc1cc(C(=O)O)cc(OCc2ccsc2)c1-c1ccccc1 | 139 to 140
29 | CCSc1c(C=O)c(=O)n(C)c(=O)n1C | 72
30 | C=CCOc1ccc(OCc2ccccc2)cc1 | 56 to 57
31 | Cc1ccc(S(=O)(=O)OCC2Cc3cc(Cl)cc(-c4ccccc4)c3O2)cc1 (stereo not drawn) | 127 to 130
32 | OC1(c2cccs2)C(c2ccccc2Cl)SC2=NCCCCN21 (stereo not drawn) | 120 to 122
33 | Cc1ccc(N2C(=O)C(O)=C(C(=O)c3ccc(C(C)C)cc3)C2c2ccc(C(C)C)cc2)cn1 (stereo not drawn) | 252 to 254
34 | CC(C)C(NC(=O)C(CC(=O)OC(C)(C)C)NC(=O)CCNC(=O)OCc1ccccc1)C(=O)OC(C)(C)C (stereo not drawn) ({Cbz-βAla}-Asp(OtBu)-Val-OtBu; configuration not given here) | 126
35 | CON=Cc1sc(-c2ccc(O)cc2)c(C)c1-c1ccc(O)cc1 | 219 to 225
36 | Cc1nc(-c2cccc(CN(C(=O)Nc3ccc(-c4ccccc4S(=O)(=O)NC(C)(C)C)cc3)c3ccccc3)c2)no1 | 191 to 192
37 | CC(=O)SCCC(=O)N1CCN(C)CC1C(=O)O (stereo not drawn) | 92 to 98
38 | CN(C(=O)OC(C)(C)C)[C@H](Cc1ccc2ccccc2c1)C(=O)N1CCN(S(C)(=O)=O)C[C@H]1Cc1ccccc1 | 76 to 80
39 | CC(C)c1ccc2oc(C=Cc3ccc(C#N)cc3)cc(=O)c2c1 | 189 to 191
40 | COC(=O)C(C)(C)S(=O)(=O)N1CC=C(c2ccc(Br)c(C)c2)CC1 | 100 to 101

Other lines, results leading:

Row | melting point [°C] | Structure (SMILES)
41 | 135 to 137 | COc1cc(C(C)=O)ccc1OCCCN1CCN(n2ncc3ccc(F)cc32)CC1
42 | 162 to 165 | CNC(=O)c1cnn(C(C)(C)C)c1C#N
43 | 79 to 81 | CSc1nc2c(Cl)ccc(-n3c(=O)cc(C(F)(F)F)n(C)c3=O)c2s1
44 | 133 to 135 | COc1cccc([C@H]2O[C@H](CC(=O)NS(=O)(=O)CCCO)C(=O)N(CC(C)(C)CO)c3ccc(Cl)cc32)c1OC
45 | 114 to 116 | COCCc1nc2c(N)nc3ccccc3c2n1CCCCNC(=O)c1cnc2ccccc2c1
46 | 141 to 142 | CC(=O)n1cc(C#N)c(-c2cccc(Cl)c2F)c1
47 | 244 to 247 | CCCCOc1ccc(-c2ccc3c(c2)C=C(C(=O)O)CCS3(=O)=O)cc1
48 | 92 | CCOC[C@H]1CN(c2ccc(OCc3ccccc3)cc2)C(=O)O1
49 | 80 to 82 | Cc1cc2ncnn2nc1OCCOCCN1CCC(OC(c2ccccc2)c2ccccc2)CC1
50 | > 250 | COc1cc2c(=O)cc(C(=O)O)n(C)c2ccc1=O
51 | 150 to 152 | COc1cc(Cl)nc(Oc2cccc(Oc3nc(OC)cc(OC)n3)c2C(=O)O)n1
52 | 205 to 206 | COCOc1ccccc1-c1cc(-c2ccc(C(=O)O)cc2)c(C#N)c(NC(=O)c2cccs2)n1
53 | 112 | CC(=O)NCCc1coc2ccc3c(c12)OCCO3
54 | 152 to 153 | Cc1oc(-c2ccccc2)nc1COc1ccc(/C=C/CO)cc1C(F)(F)F
55 | 135 | CCN1CCc2ccc(Nc3ncc(Cl)c(NCCCC(=O)NC)n3)cc2CC1
56 | 177 to 178 | CCCCc1cc(O)n2nccc2n1
57 | 186 to 188 | CCCCc1nc2ccc(NC(=O)C3CCCCC3C(=O)O)cc2n1Cc1ccc(-c2ccccc2C(=O)O)cc1 (stereo not drawn)
58 | 70 to 72 | CCCc1ccc(-c2nc(-c3ccccc3Cl)nn2C)c(Cl)c1
59 | 157 to 158 | COc1cccc(C(CN2CCN(c3cncc(Cl)n3)CC2)C2(O)CCCCC2)c1 (stereo not drawn)
60 | 90 to 91.5 | Cc1cccc(NC(C(N)=O)c2ccccc2C)c1 (stereo not drawn)

Row | melting point [°C] | Structure (SMILES)
61 | 51 to 52 | CCCCCCCCCCC[C@H](CC(=O)N[C@H](CO)C(=O)OCc1ccccc1)OC(=O)CCCCCCCCC
62 | 133 to 134 | CCSCC(=O)c1cc(C(C)(C)C)c(O)c(C(C)(C)C)c1
63 | 222 | CCOc1ncc(C(=O)O)c2ccccc12
64 | 99 to 100 | CCCN(CCC)c1c(C#N)cnn1-c1ccc(Cl)c(Cl)c1Cl
65 | 50 to 70 | CS(=O)(=O)c1ccc(-c2cnn(-c3cccc(Cl)c3)c(=O)c2COC(=O)c2ccccc2)cc1
66 | 245 to 247 | CC(O)CCNc1cc(C(=O)O)cc(S(N)(=O)=O)c1Oc1ccccc1 (stereo not drawn)
67 | 109 to 110 | CCOCCOC(=O)C(=O)Nc1nc(-c2ccccc2)cs1
68 | 129 to 130 | CC(C)(C)OC(=O)NCCc1c[nH]c2ccc(CO)cc12
69 | 198 | CSCCC(NCc1ccccc1N)C(=O)O (stereo not drawn)
70 | 125 to 135 | C[C@@H](S)[C@](O)(Cn1ccnc1)c1ccc(F)cc1F
71 | 129 to 131 | CC(C)(C)C(=O)OCc1cc2c(OCC3CO3)cccc2[nH]1 (stereo not drawn)
72 | 153 | OC1CSC(Oc2cccnc2Cl)C(O)C1O (stereo not drawn)
73 | 212 to 214 | Cc1n[nH]c(-c2ccccc2)c1-c1ccncc1
74 | 125 | O=c1ccoc2c3c(ccc12)OCC(CO)O3 (stereo not drawn)
75 | > 300 | Cn1cnc2nc(-c3ccc(Br)cc3)nn2c1=S
76 | 143 | CC(C)(Oc1ccc(OCc2noc(-c3ccc(C(C)(C)C)cc3)n2)cc1)C(=O)O
77 | 114 to 117 | CCN1CCC(=O)C(=C2SC=CS2)C1=O
78 | 227 to 230 | CC(=O)c1cc(C(C)=O)c(O)cc1N
79 | 159 to 160 | NC(=O)c1cnc2sccc2c1Cl
80 | 109 | Fc1cccc(F)c1COCc1nc2ccccc2n1Cc1c(F)cccc1F

Row | melting point [°C] | Structure (SMILES)
81 | 160 to 162 | NCc1cc(Cl)ccc1O
82 | 215 to 218 | CN1CCN(Cc2cnc(Nc3cc(-c4cccc(-n5ncc6cc(C(C)(C)C)cc(F)c6c5=O)c4CO)nn(C)c3=O)cn2)CC1
83 | 217 to 218 | COc1c(Cl)cc(Cn2c(S)nc3ccccc32)cc1Cl
84 | 246 to 248 | O=C(O)c1cn(C2CC2)c2nc(N3CCC(n4ccnn4)CC3)c(F)cc2c1=O
85 | 166 to 168 | CC(C)c1cccc(C(C)C)c1NC(=O)CS(=O)(=O)CCCl
86 | 263 to 265 | CC(=N)Nc1cccc(C(=N)N)c1
87 | 95 to 96 | COC(=O)NCCOc1cc(-c2ccccc2)on1
88 | 233 to 235 | Cc1ccc(C(=O)Nc2c[nH]nc2C(=O)NCCO)cn1
89 | 248 to 250 | CCCCCCCCCC(=O)Nc1cc(C(=O)O)c2cc[nH]c2c1
90 | 173 to 175 | CC(C)CC(=O)Nc1cccc(-c2ccnc3c(-c4cccc(N)c4)cnn23)c1
91 | 135 to 140 | Oc1nn(-c2ccccc2)nc1Cl
92 | 239 to 240 | CC(=O)NCC1CN(c2ccc(N3CCN(c4nc5ccccc5s4)CC3)c(F)c2)C(=O)O1 (stereo not drawn)
93 | 89 to 91 | CCOC(=O)c1ccc(C#CC(O)c2cc(C(C)(C)C)cc(C(C)(C)C)c2OCOC)cc1 (stereo not drawn)
94 | 61.7 | CCCCCCCCCc1cnc(-c2ccc(C(=O)OC)cc2)nc1
95 | 262 to 264 | Fc1cc2c(Nc3ccc(Br)c(Br)c3)ncnc2cn1
96 | 112 to 113 | C[C@@H](COc1ccc(N2CCN(c3ccncc3)CC2)cc1)CC(=O)OC(C)(C)C
97 | 235 | CN(C)c1ccc2nc(N)c(C#N)c(NCc3ccco3)c2c1
98 | 103 | O=C(NC(CCc1ccccc1)c1nnco1)c1ccc2[nH]c(-c3ccncc3)nc2c1 (stereo not drawn)

Reference: a melting point compilation (Tetko et al.; mined from patent text by program, amines drawn as free bases though some values may be those of a salt)
